The kinase profiling compilation of Christmann-Franck et al. (2016)

Key:
Assay in all cases: Caliper, Mobility shift assay off-chip
PRKCB2 (human) = PRKCB2 (human) (UniProt P05771)
[1] = test system: EGFR (human), P00533 [T790M/L858R]
MELK (human) = MELK (human) (UniProt Q14680)
MAP4K4 (human) = MAP4K4 (human) (UniProt O95819)
CDK2 (human) = CDK2 (human) (UniProt P24941)
RPS6KA1 KD1 KD2 (human) = RPS6KA1 KD1 KD2 (human) (UniProt Q15418)
RPS6KA3 KD1 KD2 (human) = RPS6KA3 KD1 KD2 (human) (UniProt P51812)
FER (human) = FER (human) (UniProt P16591)
AKT1 (human) = AKT1 (human) (UniProt P31749)
LYN (human) = LYN (human) (UniProt P07948)
SYK (human) = SYK (human) (UniProt P43405)
CSNK1A1 (human) = CSNK1A1 (human) (UniProt P48729)
CAMK4 (human) = CAMK4 (human) (UniProt Q16566)
PHKG2 (human) = PHKG2 (human) (UniProt P15735)
RET (human) = RET (human) (UniProt P07949)
FGFR1 (human) = FGFR1 (human) (UniProt P11362)
SGK1 (human) = SGK1 (human) (UniProt O00141)
TYRO3 (human) = TYRO3 (human) (UniProt Q06418)
EGFR (human) = EGFR (human) (UniProt P00533)
PTK2B (human) = PTK2B (human) (UniProt Q14289)
ABL1 (human) = ABL1 (human) (UniProt P00519)
MAPKAPK5 (human) = MAPKAPK5 (human) (UniProt Q8IW41)
STK3 (human) = STK3 (human) (UniProt Q13188)
ALK (human) = ALK (human) (UniProt Q9UM73)
PIM3 (human) = PIM3 (human) (UniProt Q86V86)
BMX (human) = BMX (human) (UniProt P51813)
CAMK2D (human) = CAMK2D (human) (UniProt Q13557)
PAK2 (human) = PAK2 (human) (UniProt Q13177)
AKT2 (human) = AKT2 (human) (UniProt P31751)
DCLK2 (human) = DCLK2 (human) (UniProt Q8N568)
AURKA (human) = AURKA (human) (UniProt O14965)
AKT3 (human) = AKT3 (human) (UniProt Q9Y243)
AKT3 (human), sequence (Q9Y243 whole entry, looked up): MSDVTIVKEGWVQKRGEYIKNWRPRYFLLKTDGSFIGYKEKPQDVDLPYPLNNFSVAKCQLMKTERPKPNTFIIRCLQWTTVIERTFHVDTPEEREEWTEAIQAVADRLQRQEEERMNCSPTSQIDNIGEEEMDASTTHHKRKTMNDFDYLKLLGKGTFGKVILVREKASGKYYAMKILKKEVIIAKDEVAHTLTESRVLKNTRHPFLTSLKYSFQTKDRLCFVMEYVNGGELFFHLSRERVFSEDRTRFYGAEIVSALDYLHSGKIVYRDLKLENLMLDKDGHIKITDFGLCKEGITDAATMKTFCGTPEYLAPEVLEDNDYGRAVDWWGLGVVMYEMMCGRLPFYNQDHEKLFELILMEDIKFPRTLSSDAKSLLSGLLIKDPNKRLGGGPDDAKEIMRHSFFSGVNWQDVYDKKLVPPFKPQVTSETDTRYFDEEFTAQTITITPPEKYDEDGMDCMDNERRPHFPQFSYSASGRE

SGK1 (human), sequence (O00141 whole entry, looked up): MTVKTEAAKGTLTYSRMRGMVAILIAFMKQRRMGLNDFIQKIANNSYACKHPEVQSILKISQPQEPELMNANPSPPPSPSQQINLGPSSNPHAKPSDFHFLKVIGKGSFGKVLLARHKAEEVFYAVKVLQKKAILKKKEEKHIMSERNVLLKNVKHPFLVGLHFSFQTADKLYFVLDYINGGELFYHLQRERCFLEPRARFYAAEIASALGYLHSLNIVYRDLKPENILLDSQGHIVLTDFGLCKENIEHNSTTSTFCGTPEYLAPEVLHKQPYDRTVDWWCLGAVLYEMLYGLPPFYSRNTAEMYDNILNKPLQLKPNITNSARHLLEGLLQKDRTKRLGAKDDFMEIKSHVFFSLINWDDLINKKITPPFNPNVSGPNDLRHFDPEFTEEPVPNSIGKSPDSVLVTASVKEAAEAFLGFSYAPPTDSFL
PTK2B (human), sequence (Q14289 whole entry, looked up): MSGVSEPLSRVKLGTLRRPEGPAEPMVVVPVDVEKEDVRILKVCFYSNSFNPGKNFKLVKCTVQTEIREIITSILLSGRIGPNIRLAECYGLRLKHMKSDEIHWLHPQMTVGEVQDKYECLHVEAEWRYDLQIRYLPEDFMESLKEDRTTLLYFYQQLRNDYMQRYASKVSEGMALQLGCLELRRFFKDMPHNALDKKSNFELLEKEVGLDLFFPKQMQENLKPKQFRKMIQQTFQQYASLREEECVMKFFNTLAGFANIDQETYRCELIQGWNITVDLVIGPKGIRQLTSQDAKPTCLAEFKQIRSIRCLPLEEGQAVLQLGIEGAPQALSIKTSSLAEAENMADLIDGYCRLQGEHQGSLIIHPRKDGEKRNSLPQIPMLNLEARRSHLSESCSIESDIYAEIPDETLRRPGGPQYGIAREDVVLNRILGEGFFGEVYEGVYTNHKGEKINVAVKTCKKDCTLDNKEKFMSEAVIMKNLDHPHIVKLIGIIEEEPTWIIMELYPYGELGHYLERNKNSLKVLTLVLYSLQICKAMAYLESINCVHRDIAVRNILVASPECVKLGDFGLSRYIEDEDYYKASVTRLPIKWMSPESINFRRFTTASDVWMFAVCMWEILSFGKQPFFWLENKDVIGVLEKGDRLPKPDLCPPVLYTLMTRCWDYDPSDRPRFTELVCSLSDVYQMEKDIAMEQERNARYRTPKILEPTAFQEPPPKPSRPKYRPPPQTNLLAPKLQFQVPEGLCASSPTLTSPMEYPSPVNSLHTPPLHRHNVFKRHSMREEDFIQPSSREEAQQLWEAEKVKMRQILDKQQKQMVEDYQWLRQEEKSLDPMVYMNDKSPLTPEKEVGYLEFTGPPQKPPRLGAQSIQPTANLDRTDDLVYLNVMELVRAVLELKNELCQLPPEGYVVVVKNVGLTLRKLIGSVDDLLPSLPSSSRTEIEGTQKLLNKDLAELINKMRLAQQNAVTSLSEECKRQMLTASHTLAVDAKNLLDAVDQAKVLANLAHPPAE
EGFR (human), P00533 [T790M/L858R], sequence (P00533 whole entry T790M/L858R, looked up): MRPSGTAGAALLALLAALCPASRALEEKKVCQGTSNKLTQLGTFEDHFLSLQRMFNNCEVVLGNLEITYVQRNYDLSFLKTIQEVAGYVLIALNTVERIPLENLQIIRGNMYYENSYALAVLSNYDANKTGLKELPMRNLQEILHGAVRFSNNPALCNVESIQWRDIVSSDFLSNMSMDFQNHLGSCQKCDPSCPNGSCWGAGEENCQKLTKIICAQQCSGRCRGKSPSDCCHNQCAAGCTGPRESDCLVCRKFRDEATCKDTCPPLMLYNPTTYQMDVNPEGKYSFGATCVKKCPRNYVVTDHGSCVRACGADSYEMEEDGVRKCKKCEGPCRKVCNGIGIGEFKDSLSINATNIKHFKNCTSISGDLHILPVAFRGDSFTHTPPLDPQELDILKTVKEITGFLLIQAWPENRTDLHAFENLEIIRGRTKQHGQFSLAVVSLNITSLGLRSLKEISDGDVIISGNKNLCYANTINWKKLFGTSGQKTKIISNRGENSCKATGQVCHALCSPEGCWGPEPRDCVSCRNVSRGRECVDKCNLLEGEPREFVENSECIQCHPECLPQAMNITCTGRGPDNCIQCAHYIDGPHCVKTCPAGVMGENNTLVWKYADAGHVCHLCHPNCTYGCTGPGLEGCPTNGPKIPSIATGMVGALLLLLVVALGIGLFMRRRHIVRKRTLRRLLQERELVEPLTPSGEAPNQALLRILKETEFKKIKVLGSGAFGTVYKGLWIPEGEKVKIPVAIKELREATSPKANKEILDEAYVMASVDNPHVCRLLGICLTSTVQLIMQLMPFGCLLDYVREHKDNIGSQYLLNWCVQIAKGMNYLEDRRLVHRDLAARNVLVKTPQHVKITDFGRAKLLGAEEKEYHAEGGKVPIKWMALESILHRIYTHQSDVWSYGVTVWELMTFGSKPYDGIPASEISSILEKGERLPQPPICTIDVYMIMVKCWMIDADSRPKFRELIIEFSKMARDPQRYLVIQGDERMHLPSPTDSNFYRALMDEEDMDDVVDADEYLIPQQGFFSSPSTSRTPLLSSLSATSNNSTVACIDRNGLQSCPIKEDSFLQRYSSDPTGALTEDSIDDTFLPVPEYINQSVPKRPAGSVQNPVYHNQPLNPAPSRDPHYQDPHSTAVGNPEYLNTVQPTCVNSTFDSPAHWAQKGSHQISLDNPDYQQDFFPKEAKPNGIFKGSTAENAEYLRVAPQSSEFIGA
TYRO3 (human), sequence (Q06418 whole entry, looked up): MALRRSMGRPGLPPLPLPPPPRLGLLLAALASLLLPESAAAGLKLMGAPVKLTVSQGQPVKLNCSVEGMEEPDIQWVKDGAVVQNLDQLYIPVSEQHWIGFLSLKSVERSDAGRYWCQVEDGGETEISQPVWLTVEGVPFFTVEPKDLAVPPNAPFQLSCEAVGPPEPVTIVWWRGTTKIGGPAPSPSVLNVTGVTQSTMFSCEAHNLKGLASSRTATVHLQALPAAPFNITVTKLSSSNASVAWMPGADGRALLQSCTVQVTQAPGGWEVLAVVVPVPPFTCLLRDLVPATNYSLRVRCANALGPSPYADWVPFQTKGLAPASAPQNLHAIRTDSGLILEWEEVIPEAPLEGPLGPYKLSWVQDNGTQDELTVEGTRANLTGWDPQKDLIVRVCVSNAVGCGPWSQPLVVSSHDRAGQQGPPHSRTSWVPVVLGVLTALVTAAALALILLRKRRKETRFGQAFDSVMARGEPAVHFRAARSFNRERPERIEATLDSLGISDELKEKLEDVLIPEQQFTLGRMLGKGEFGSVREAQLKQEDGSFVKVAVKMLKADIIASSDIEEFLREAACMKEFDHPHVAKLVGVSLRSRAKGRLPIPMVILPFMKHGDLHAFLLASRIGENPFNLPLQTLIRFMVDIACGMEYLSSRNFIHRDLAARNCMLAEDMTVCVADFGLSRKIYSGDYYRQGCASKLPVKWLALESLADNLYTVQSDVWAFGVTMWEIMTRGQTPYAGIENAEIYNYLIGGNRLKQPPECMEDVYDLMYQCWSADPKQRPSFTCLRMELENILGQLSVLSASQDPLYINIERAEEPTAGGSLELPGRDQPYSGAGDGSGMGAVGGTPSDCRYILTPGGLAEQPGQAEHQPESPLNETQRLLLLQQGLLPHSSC
STK3 (human), sequence (Q13188 whole entry, looked up): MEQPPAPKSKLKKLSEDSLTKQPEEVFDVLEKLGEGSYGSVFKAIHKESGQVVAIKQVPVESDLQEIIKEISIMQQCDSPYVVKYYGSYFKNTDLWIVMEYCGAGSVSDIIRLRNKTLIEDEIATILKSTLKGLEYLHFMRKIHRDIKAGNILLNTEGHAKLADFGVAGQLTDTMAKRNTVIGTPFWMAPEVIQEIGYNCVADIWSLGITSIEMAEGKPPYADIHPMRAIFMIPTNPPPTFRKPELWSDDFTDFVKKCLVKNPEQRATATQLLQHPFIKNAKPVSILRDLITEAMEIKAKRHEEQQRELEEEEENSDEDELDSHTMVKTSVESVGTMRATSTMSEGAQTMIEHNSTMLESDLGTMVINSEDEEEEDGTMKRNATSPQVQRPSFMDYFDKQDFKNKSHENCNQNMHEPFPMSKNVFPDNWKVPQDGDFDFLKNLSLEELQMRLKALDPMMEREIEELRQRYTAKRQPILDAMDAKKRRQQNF
AKT1 (human), sequence (P31749 whole entry, looked up): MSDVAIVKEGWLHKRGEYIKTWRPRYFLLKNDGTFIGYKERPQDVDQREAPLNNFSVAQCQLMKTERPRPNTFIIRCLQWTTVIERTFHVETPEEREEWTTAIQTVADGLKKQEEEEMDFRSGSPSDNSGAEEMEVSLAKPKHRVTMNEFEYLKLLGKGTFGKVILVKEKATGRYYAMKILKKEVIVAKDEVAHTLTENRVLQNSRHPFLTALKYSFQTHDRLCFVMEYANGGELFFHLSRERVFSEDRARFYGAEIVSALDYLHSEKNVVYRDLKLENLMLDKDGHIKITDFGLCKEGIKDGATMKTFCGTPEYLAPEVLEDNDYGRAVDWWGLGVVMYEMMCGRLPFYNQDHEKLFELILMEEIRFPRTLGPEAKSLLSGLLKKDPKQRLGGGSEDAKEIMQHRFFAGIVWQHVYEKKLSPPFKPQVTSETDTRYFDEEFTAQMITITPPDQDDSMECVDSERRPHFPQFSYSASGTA

`Cn1cc(-c2cnc3ccc4ccc(CS(=O)(=O)NC5CCCCC5)cc4c(=O)c3c2)cn1` was tested, and the inhibition (PRKCB2 (human); compound 0.01 µM) was 1.4%, the inhibition (PRKCB2 (human); compound 0.1 µM) was 5.7% and the inhibition ([1]; compound 0.01 µM) was 1.8%. For the same compound, the inhibition ([1]; compound 0.1 µM) was -0.4%, the inhibition (MELK (human); compound 0.01 µM) was 1.7% and the inhibition (MELK (human); compound 0.1 µM) was -0.5%. The inhibition (MAP4K4 (human); compound 0.01 µM) was -2.1%, the inhibition (MAP4K4 (human); compound 0.1 µM) was 9.2% and the inhibition (CDK2 (human); compound 0.01 µM) was -2.1%. For the same compound, the inhibition (CDK2 (human); compound 0.1 µM) was 11.7%, the inhibition (RPS6KA1 KD1 KD2 (human); compound 0.01 µM) was 1.3% and the inhibition (RPS6KA1 KD1 KD2 (human); compound 0.1 µM) was 3.4%. For the same compound, the inhibition (RPS6KA3 KD1 KD2 (human); compound 0.01 µM) was -3.6%, the inhibition (RPS6KA3 KD1 KD2 (human); compound 0.1 µM) was -3.8% and the inhibition (FER (human); compound 0.01 µM) was -1%. The inhibition (FER (human); compound 0.1 µM) was 0.2%, the inhibition (AKT1 (human); compound 0.01 µM) was 0.8% and the inhibition (AKT1 (human); compound 0.1 µM) was 7.4%. For the same compound, the inhibition (LYN (human); compound 0.01 µM) was 9.1%, the inhibition (LYN (human); compound 0.1 µM) was 3.6% and the inhibition (SYK (human); compound 0.01 µM) was 1.3%. For the same compound, the inhibition (SYK (human); compound 0.1 µM) was -4.4%, the inhibition (CSNK1A1 (human); compound 0.01 µM) was -2.8% and the inhibition (CSNK1A1 (human); compound 0.1 µM) was 10.2%. For the same compound, the inhibition (CAMK4 (human); compound 0.01 µM) was 2.1%, the inhibition (CAMK4 (human); compound 0.1 µM) was 2.3% and the inhibition (PHKG2 (human); compound 0.01 µM) was 3.4%. For the same compound, the inhibition (PHKG2 (human); compound 0.1 µM) was 13.3%, the inhibition (RET (human); compound 0.01 µM) was 10.4% and the inhibition (RET (human); compound 0.1 µM) was 12.1%. For the same compound, the inhibition (FGFR1 (human); compound 0.01 µM) was 6.8%, the inhibition (FGFR1 (human); compound 0.1 µM) was 2.8% and the inhibition (SGK1 (human); compound 0.01 µM) was 2.1%. The inhibition (SGK1 (human); compound 0.1 µM) was 9.1%, the inhibition (TYRO3 (human); compound 0.01 µM) was -1.1% and the inhibition (TYRO3 (human); compound 0.1 µM) was 9.2%. It also gave an inhibition (EGFR (human); compound 0.01 µM) of -7.2%, an inhibition (EGFR (human); compound 0.1 µM) of -1% and an inhibition (PTK2B (human); compound 0.01 µM) of -1%. It also gave an inhibition (PTK2B (human); compound 0.1 µM) of 6.8%, an inhibition (ABL1 (human); compound 0.01 µM) of 3.8% and an inhibition (ABL1 (human); compound 0.1 µM) of 3.4%. For the same compound, the inhibition (MAPKAPK5 (human); compound 0.01 µM) was -2.5%, the inhibition (MAPKAPK5 (human); compound 0.1 µM) was 6.9% and the inhibition (STK3 (human); compound 0.01 µM) was 7.9%. It also gave an inhibition (STK3 (human); compound 0.1 µM) of 17.7%, an inhibition (ALK (human); compound 0.01 µM) of 17.8% and an inhibition (ALK (human); compound 0.1 µM) of -2%. The inhibition (PIM3 (human); compound 0.01 µM) was 7%, the inhibition (PIM3 (human); compound 0.1 µM) was 4.6% and the inhibition (BMX (human); compound 0.01 µM) was -1%. For the same compound, the inhibition (BMX (human); compound 0.1 µM) was -7.1%, the inhibition (CAMK2D (human); compound 0.01 µM) was 2.4% and the inhibition (CAMK2D (human); compound 0.1 µM) was -6.5%. For the same compound, the inhibition (PAK2 (human); compound 0.01 µM) was 4.4%, the inhibition (PAK2 (human); compound 0.1 µM) was 4.9% and the inhibition (AKT2 (human); compound 0.01 µM) was -1.3%. The inhibition (AKT2 (human); compound 0.1 µM) was 2%, the inhibition (DCLK2 (human); compound 0.01 µM) was 1.7% and the inhibition (DCLK2 (human); compound 0.1 µM) was 7.8%. It also gave an inhibition (AURKA (human); compound 0.01 µM) of 5.8%, an inhibition (AURKA (human); compound 0.1 µM) of 6.9% and an inhibition (AKT3 (human); compound 0.01 µM) of -2.7%. It also gave an inhibition (AKT3 (human); compound 0.1 µM) of 5.2%.
